We go through 17 molecules from US6569638B1, “Method for screening compounds for the treatment of neoplasia” (Cell Pathways, Inc, priority 2000, dated 2003).

Molecules are shown by their SMILES. Read-outs that look alike come from different tables or passages of the source.

One assay has as its target native bovine PDE5 (Bos taurus, UniProt Q28156). The conditions noted are these: read-out: Kd of cGMP binding; cited from earlier work.
In assay [1] the target is T1, GST-cGB-PDE5 fusion protein (cGMP binding sites of human PDE5A) (Homo sapiens, UniProt O76074).
T1 construct: made in house; host or cells: E. coli BL21 (DE3)
Put plainly: cGMP binding assay (3H-cGMP competition).

For another assay, the system named is PARP in SW480 cells. Put plainly: PARP cleavage by Western blot. It counts as cell-based, human. The conditions noted are these: SW480 cells pre-incubated 2 μM for 2 hours, then Compound A 1 μM 2 days. As for the experimental part:
SW480 cells were pre-treated with either DMSO (−) or Rp-8-pCPT-cGMPS (2 μM) for 2 hours and then treated with either DMSO (−) or Compound A (1 μM). Both the floating and attached cells were collected after 2 days, and the cell lysates were assayed for PARP cleavage by Western blotting with anti-PARP antibody. Fold increase in PARP cleavage was measured by densitometry of the 85 kD fragment.
Finally, we investigated whether activation of the PKG pathway is required for the induction of apoptosis by SAANDs. SW480 cells were treated with either DMSO or the PKG inhibitor Rp-8-pCPT-cGMPS (2 μM) for 2 hours and then the cells were treated with either DMSO or Compound A (1 μM) for 2 days. Both the floating and attached cells were collected, and the cell lysates were assayed for poly (ADP-ribose) polymerase (PARP) cleavage by Western blotting with an anti-PARP antibody. PARP is a 116 kD nuclear enzyme that converts NAD to nicotinamide and protein-linked ADP-ribose polymers, which are important for DNA repair and genomic maintenance. In cells that are undergoing apoptosis the 116 kD PARP protein is cleaved by caspase-3 into 85 and 25 kD fragments, thus resulting in loss of normal PARP function. This inactivation of PARP apparently prevents depletion of cellular levels of NAD and ATP, which are thought to be required for later events in apoptosis.
A general note: In western blotting, separated proteins are transferred to a membrane and probed.

The test system of assay [2] is JNK1 in SW480 colon cancer cells. As to the kind of experiment: JNK1 immunoprecipitation in vitro kinase assay with GST-c-Jun(1-79). It counts as cell-based, human. The conditions noted are these: for inhibition of Compound B-induced JNK1 activation: SW480 cells pre-treated 2 μM for 2 hours, then Compound B 1 or 10 μM for one hour; for JNK1 activation by cGMP modulators: SW480 cells, one hour, dbcGMP 500 μM, dbcAMP 500 μM, YC-1 50 μM, MY-5445 50 μM, dipyridamole 10 μM. As for the experimental part:
The cells were lysed, JNK1 immunoprecipitated with an anti-JNK1 antibody, and the immunoprecipitate (“IP”) assayed for in vitro kinase activity with GST-c-Jun(1-79) as the substrate. The experiments were repeated three times with similar results. Fold activation was measured using a Phosphor Imager.
FIG. 1B: SW480 cells were treated with Compound A (1 μM) for the indicated time periods and in vitro JNK1 kinase activity was determined as described above.
FIG. 2A SW480 cells were treated with either DMSO (−) or Compound A, 0.1 μM; dbcGMP, 500 μM; YC-1, 50 μM; MY-5445, 50 μM; dipyridamole, 10 μM or dbcAMP, 500 μM for one hour. The cells were lysed, JNK1 immunoprecipitated, and the IP assayed for in vitro kinase activity as described in FIG. 1A.
FIG. 2B SW480 cells were pre-treated with either DMSO, KT5720 (2 μM) or Rp-8-pCPT-cGMPS (2 μM) for 2 hours and then treated with Compound B (0, 1 or 10 μM) for one hour. The cells were lysed and assayed for JNK1 activation in the IP as described above.
These concentrations were chosen since they provided optimal induction of apoptosis. Endogenous JNK1 was immunoprecipitated with anti-JNK1 antibody and in vitro kinase assays were performed with GST-c-Jun(1-79) as the substrate. […]
However, the precise role of PKG in signal transduction pathways is not known. […] As a control, KT5720 was used as a protein kinase A (“PKA”)-specific inhibitor. SW480 cells were treated with either DMSO, KT5720 (2 μM) or Rp-8-pCPT-cGMPS (2 μM) for 2 hours and then treated with either DMSO or Compound B (1 or 10 μM) for one hour. Cell extracts were collected and assayed for JNK1 activation.

In assay [3] the test system is PKG in SW480 colon cancer cells. Put plainly: PKG assay of drug-treated cell lysates (GST-cGB-PDE5 solid phase substrate). Format: cell-based, human. The conditions noted are these: 48 hrs, exisulind 200, 400, 600 μM, E4021 0.1, 1, 10 μM, with and without added cGMP. As for the experimental part: To test the effect of cGMP-specific PDE inhibition on neoplasia containing the APC mutation, SW480 colon cancer cells were employed. SW 480 is known to contain the APC mutation. About 5 million SW480 cells in RPMI 5% serum are added to each of 8 dishes:
2-10 cm dishes—30 μL DMSO vehicle control (without drug),
3-10 cm dishes—200 μM, 400 μM, 600 μM exisulind in DMSO, and
The dishes are incubated for 48 hrs at 37° C. in 5% CO2 incubator.
The liquid media are aspirated from the dishes (the cells will attach themselves to the dishes). The attached cells are washed in each dish with cold PBS, and 200 μL cell lysis buffer (i.e., 50 mM Tris-HCl, 1% NP-40, 150 mM NaCl, 1 mM EDTA, 1 mM Na3VO4, 1 mM NaF, 500 μM IBMX with proteinase inhibitors) is added to each dish. Immediately after the cell lysis buffer is added, the lysed cells are collected by scraping the cells off each dish. The cell lysate from each dish is transferred to a microfuge tube, and the microfuge tubes are incubated at 4° C. for 15 minutes while gently agitating the microfuge tubes to allow the cells to lyse completely. […]
For each control or drug cell lysate sample to be evaluated, the reaction is started by adding phosphorylation buffer containing 10 μCi ^32P-γ-ATP solution (200 μM ATP, 4.5 mM MgCl; 5 mM KH2PO4; 5 mM K2HPO4;) to each mixture. […]

[4] abbreviates: at high concentration (100 μM) against cGMP 2 μM.

T1 sequence (O76074 46-539 limits assumed): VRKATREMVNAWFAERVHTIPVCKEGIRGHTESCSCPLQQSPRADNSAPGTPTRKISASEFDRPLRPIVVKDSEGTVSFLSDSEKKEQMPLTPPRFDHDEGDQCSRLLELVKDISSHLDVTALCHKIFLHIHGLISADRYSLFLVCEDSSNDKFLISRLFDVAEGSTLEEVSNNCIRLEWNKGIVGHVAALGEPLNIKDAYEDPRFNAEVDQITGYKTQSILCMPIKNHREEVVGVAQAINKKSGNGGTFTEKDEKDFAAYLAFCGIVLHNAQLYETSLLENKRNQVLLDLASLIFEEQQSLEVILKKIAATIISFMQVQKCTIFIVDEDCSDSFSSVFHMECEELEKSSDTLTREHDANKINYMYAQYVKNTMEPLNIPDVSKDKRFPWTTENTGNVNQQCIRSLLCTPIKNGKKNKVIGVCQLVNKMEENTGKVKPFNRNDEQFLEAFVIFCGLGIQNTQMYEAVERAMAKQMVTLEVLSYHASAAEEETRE

For orientation: Kd means the concentration at which binding is half-saturated. Take `Nc1nc2c(ncn2[C@@H]2O[C@@H]3COP(=O)(O)O[C@H]3[C@H]2O)c(=O)[nH]1` [cGMP, cyclic 3′,5′-guanosine monophosphate]: the Kd is 1.3 µM at native bovine PDE5 and 1.6 ± 0.2 µM in assay [1]. In addition, the “competition with cGMP for the cGMP binding sites of GST-cGB-PDE5” value (“competition with cGMP” for short) in assay [1] (3H-cGMP 2 μM, 22° C., 1 hour) is on record as “specifically binds GST-cGB-PDE5 protein”.
Consider `Nc1nc2c(nc(Sc3ccc(Cl)cc3)n2[C@@H]2O[C@@H]3CO[P@@](=O)(S)O[C@H]3[C@H]2O)c(=O)[nH]1` [Rp-8-pCPT-cGMP, reference compound], for which the “inhibition of Compound A-induced PARP cleavage” value with PARP in SW480 cells is “significantly inhibited”. Besides, the “inhibition of Compound B-induced JNK1 activation” value in assay [2] is “strongly inhibited”.
As for `CCCOc1ccccc1-c1nc2nn[nH]c2c(=O)[nH]1` [zaprinast], in assay [1] (3H-cGMP 2 μM, 22° C., 1 hour), the “competition with cGMP” value is listed as “None of the PDE5 inhibitors showed any competition with cGMP”.
Take `Clc1cccc(Nc2nnc(-c3ccccc3)c3ccccc23)c1` [MY-5445, 1-(3-chloroanilino)-4-phenyphthalazine]: the “JNK1 activation by cGMP modulators” value in assay [2] is “also activated JNK1”.
Turning to `Nc1nc2c(nc(Br)n2[C@@H]2O[C@@H]3COP(=O)(O)O[C@H]3[C@H]2O)c(=O)[nH]1` [Compound 8-bromo-cGMP, 8-bromo-cGMP], the “competition with cGMP” value in assay [1] (setting [4]) is “can partially compete with cGMP”.
`CCCCCCOC(=O)[C@]1(O)C[C@@H]2O[C@@]1(C)n1c3ccccc3c3c4c(c5c6ccccc6n2c5c31)C(=O)NC4` [KT5720]: the “inhibition of Compound B-induced JNK1 activation” value in assay [2] was “no inhibitory activity”.
Consider `O=C([O-])C1CCN(c2nc(NCc3ccc4c(c3)OCO4)c3cc(Cl)ccc3n2)CC1.[Na+]` [Compound E4021], for which, in assay [1] (3H-cGMP 2 μM, 22° C., 1 hour), the “competition with cGMP” value was “None of the PDE5 inhibitors showed any competition with cGMP”. The “PKG activity relative to control” value in assay [3] is listed as “do not exhibit PKG activation relative to control”.
With `CCCCOC1C2OP(=O)(O)OCC2OC1n1cnc2c(N)ncnc21` (stereo not drawn) [2′-O-butyl-cAMP], the “competition with cGMP” value in assay [1] (3H-cGMP 2 μM, 22° C., 1 hour) is reported as “did not compete with cGMP in binding”.
For the molecule `OCc1ccc(-c2nn(Cc3ccccc3)c3ccccc23)o1` [YC-1], in assay [2], the “JNK1 activation by cGMP modulators” value is on record as “also activated JNK1”.
Take `O=c1[nH]cnc2c1ncn2[C@@H]1O[C@@H]2COP(=O)(O)O[C@H]2[C@H]1O` [Cyclic IMP, cyclic IMP]: the “competition with cGMP” value in assay [1] (setting [4]) is “can partially compete with cGMP”.
For `CCCC(=O)Nc1nc2c(ncn2C2OC3COP(=O)([O-])OC3C2OC(=O)CCC)c(=O)[nH]1.[Na+]` (stereo not drawn) [dbcGMP, Dibutyrylguanosine 3′:5′-cyclic monophosphate], the “JNK1 activation by cGMP modulators” value in assay [2] was “activated JNK1”.
Still for that read-out and setting: as for `CCCC(=O)Nc1ncnc2c1ncn2[C@@H]1O[C@@H]2COP(=O)(O)O[C@H]2[C@H]1OC(=O)CCC` [dbcAMP, dibutyryladenosine 3′:5′-cyclic monophosphate], the entry is “inactive”.
Turning to `Nc1ncnc2c1ncn2[C@@H]1O[C@@H]2COP(=O)(O)O[C@H]2[C@H]1O` [Cyclic AMP], the “competition with cGMP” value in assay [1] is given as “did not compete with cGMP in binding”.
As for `CCCCOC1C2OP(=O)(O)OCC2OC1n1cnc2c(=O)[nH]c(N)nc21` (stereo not drawn) [2′-O-butyl-cGMP], the “competition with cGMP” value in assay [1] (3H-cGMP 2 μM, 22° C., 1 hour) was “did not compete with cGMP in binding”.
On the same count and under the same terms, as for `O=c1ccn([C@@H]2O[C@@H]3COP(=O)(O)O[C@H]3[C@H]2O)c(=O)[nH]1` [cUMP, cyclic UMP], the entry is “did not compete with cGMP in binding”.
Same read-out and setting: in the case of `Nc1ccn([C@@H]2O[C@@H]3COP(=O)(O)O[C@H]3[C@H]2O)c(=O)n1` [cCMP, cyclic CMP] it was “did not compete with cGMP in binding”.
Turning to `OCCN(CCO)c1nc(N2CCCCC2)c2nc(N(CCO)CCO)nc(N3CCCCC3)c2n1` [dipyridamole], in assay [2], the “JNK1 activation by cGMP modulators” value is “also activated JNK1”.
